Calls of active or inactive are those of the source.
Columns and labels:
[1] = biological target: Glyceraldehyde-3-phosphate dehydrogenase (Homo sapiens, UniProt P04406)
[2] = biological target: T1, Short transient receptor potential channel 4 (Mus musculus, UniProt Q9QUQ5); test: mouse TRPC4 channel activators, dose response, cell-based, HEK293 TRPC4/mu-opioid, Fluo-4 calcium (AID 434937); format: functional
T1 sequence (Q9QUQ5 whole entry): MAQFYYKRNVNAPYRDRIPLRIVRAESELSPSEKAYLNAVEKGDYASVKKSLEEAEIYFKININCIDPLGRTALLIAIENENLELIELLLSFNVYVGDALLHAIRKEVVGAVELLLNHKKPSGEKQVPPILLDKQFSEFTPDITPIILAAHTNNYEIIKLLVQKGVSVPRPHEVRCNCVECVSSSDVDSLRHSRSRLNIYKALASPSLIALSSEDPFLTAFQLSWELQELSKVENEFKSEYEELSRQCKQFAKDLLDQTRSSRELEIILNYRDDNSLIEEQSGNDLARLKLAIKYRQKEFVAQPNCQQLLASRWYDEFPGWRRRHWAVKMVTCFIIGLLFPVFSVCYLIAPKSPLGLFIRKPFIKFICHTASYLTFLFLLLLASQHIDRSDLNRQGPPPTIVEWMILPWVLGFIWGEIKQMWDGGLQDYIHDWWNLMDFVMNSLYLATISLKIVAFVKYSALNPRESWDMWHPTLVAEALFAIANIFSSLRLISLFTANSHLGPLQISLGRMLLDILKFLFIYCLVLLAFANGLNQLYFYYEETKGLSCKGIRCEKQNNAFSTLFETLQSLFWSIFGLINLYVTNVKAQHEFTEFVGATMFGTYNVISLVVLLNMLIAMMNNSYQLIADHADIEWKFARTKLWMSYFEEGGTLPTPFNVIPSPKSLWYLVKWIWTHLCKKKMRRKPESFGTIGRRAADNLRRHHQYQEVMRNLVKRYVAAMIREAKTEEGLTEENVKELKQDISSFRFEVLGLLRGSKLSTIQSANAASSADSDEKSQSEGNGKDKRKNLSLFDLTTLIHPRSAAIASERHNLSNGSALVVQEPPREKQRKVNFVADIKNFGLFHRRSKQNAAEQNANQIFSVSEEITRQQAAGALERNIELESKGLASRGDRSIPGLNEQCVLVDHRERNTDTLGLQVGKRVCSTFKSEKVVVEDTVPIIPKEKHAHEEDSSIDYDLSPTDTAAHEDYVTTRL

[3] = biological target: Paired box protein Pax-8 (Homo sapiens, UniProt Q06710); test: inhibitors of PAX8-driven TPO luciferase reporter, dose response, RMG-I cells, cherry-pick (AID 687027); format: functional, cell-based;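 note: luciferase reporter driven by Pax8 target thyroperoxidase promoter measured by SteadyGlo luminescence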
[4] = biological target: Cytochrome P450 2C19 (Homo sapiens, UniProt P33261); test: Cytochrome panel assay with activity outcomes. Panel member name: p450-cyp2c19 Compounds with AC50 equal or less than 10 uM are considered active; format: functional; conditions: read-out: AC50
[5] = biological target: T1, Short transient receptor potential channel 4; test: mouse TRPC4 channel inhibitors, dose response, cell-based, HEK293 TRPC4/mu-opioid, Fluo-4 calcium (AID 434942); format: functional;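 note: potency of inhibitors blocking the TRPC4 calcium response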
[6] = Luminescence Cell-Based Dose Confirmation HTS to Identify Inhibitors of Platelet Dense Granule Release. [Related pubchem assays: 1663 (Primary HTS), 1678 (Summary of Project)]; format: functional
[7] = biological target: Luciferin 4-monooxygenase (Photinus pyralis, UniProt P08659); test: firefly luciferase enzyme inhibitors, dose response, biochemical, luminescence (AID 1891)
[8] = biological target: T2, Cytochrome P450 1A2 (Homo sapiens, UniProt P05177);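 note: PubChem cytochrome P450 panel assay, CYP1A2 panel member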
T2 sequence (P05177 whole entry): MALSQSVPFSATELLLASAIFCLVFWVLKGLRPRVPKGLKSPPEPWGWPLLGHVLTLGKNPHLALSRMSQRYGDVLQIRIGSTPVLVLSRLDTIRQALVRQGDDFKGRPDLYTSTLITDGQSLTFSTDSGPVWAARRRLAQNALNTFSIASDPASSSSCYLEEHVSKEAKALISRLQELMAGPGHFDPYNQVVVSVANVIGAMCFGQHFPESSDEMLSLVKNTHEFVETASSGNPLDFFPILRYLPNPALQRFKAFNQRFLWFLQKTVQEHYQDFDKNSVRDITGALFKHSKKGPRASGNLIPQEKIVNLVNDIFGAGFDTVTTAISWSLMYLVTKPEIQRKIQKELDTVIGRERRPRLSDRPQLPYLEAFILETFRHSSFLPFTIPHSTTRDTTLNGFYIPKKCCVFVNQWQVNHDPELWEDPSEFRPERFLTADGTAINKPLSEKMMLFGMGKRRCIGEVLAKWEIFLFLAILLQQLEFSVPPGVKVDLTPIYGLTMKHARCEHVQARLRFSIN

[9] = biological target: Cytochrome P450 2C9 (Homo sapiens, UniProt P11712)
[10] = biological target: T3, Heat shock factor protein 1 (Mus musculus, UniProt P38532); test: HSF1 potentiators in luciferase reporter cells, confirmation, cell-based, NIH3T3, luminescence, dose retest (AID 435004); format: functional;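 note: stress induced by proteasome inhibitor MG132 added 30 min after compound; luciferase reporter driven by HSF1 response element in NIH3T3 cells; actives raise luminescence as potentiators of the MG132 stress response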
T3 sequence (P38532 whole entry): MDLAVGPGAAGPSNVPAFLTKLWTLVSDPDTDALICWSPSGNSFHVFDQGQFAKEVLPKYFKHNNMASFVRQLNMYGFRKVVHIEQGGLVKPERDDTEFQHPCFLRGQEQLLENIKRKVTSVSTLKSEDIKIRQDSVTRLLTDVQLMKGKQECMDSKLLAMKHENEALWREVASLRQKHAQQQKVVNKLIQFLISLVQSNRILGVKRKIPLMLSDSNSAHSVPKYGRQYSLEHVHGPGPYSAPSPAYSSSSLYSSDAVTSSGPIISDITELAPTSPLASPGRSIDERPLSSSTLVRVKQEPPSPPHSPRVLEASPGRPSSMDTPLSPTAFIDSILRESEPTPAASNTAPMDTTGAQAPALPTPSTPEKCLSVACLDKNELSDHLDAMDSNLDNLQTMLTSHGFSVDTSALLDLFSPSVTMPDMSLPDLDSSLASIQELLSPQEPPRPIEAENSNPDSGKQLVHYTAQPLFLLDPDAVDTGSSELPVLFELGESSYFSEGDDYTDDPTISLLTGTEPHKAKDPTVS

[11] = biological target: T4, Mannose-6-phosphate isomerase (Homo sapiens, UniProt P34949); test: human PMI inhibitors, high substrate, primary screen, biochemical, fluorescence intensity, high mannose 6-phosphate (AID 1220)
T4 sequence (P34949 whole entry): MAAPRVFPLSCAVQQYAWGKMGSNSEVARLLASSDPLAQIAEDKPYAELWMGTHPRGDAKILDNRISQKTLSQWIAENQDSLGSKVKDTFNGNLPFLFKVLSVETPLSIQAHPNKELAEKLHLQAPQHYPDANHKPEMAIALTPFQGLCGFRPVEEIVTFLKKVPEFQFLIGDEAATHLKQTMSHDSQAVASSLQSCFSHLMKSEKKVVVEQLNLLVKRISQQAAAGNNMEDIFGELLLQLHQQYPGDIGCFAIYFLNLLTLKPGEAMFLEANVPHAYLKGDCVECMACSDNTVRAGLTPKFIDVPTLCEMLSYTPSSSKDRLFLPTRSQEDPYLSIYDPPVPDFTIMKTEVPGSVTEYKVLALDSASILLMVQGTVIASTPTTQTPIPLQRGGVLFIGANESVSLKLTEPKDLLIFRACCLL

[12] = HEp-2 cell cytotoxicity, dose response, cytotoxicity control for RSV inhibitor project, HTS (AID 2410); format: functional; conditions: human respiratory syncytial virus
[13] = inhibitors of intracellular T. cruzi replication, confirmation, NIH3T3 host cells, beta-gal luminescence (AID 2044); format: functional, cell-based;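 note: intracellular parasites grown in NIH/3T3 mouse fibroblasts as host cells; luminescent beta-galactosidase reporter signal from transgenic T. cruzi replicating inside host cells; inhibitors lower the luminescence signal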
[14] = cytotoxicity toward NIH3T3 fibroblasts, dose response, counter-screen, cell-based, ATP luminescence, mouse fibroblasts (AID 2010); format: functional;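 note: cells exposed to compound for about 90 hours before reading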
[15] = inhibitors of clade B AD8 Env fusion, dose response, cell-based, cherry-pick (AID 652062); format: functional;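 note: luciferase signal from cell-cell fusion driven by HIV-1 clade B AD8 Env; potency is for inhibitors of fusion seen as a drop in luminescence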
[16] = biological target: Heat shock protein HSP 90-alpha (Homo sapiens, UniProt P07900); format: functional, organism-based
[17] = tested on: Streptococcus sp. 'group A'; test: growth inhibition of control SK(-) GAS strain, dose response, counter-screen for streptokinase expression inhibitor project, luminescence, kanamycin, BacTiterGlo, confirmation (AID 1900); format: functional, organism-based
[18] = tested on: Streptococcus; test: Group A Streptococcus viability loss, dose response, counter-screen for streptokinase expression inhibitor project, luminescence, BacTiterGlo (AID 1915); format: functional, organism-based;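 note: potency for reduction of bacterial viability or growth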
[19] = biological target: T5, Corticotropin-releasing factor receptor 2/Corticotropin-releasing factor-binding protein (Homo sapiens, UniProt P24387+Q13324); test: activators of CRF receptor 2 with binding protein – uHTS hits, confirmation (AID 602473); format: functional; conditions: read-out: EC50_Mean
T5 sequence (Q13324 whole entry): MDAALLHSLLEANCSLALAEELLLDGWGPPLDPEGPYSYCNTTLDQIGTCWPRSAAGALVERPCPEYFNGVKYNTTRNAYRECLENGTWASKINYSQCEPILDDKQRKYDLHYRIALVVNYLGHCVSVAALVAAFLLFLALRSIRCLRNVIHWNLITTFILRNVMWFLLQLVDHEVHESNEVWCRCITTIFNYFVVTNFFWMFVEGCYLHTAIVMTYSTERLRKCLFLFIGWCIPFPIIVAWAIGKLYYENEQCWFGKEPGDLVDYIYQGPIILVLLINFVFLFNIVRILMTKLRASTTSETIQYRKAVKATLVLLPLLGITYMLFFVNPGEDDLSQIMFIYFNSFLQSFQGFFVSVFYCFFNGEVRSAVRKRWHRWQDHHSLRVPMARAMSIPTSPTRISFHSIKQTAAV
T5 sequence (P24387 whole entry): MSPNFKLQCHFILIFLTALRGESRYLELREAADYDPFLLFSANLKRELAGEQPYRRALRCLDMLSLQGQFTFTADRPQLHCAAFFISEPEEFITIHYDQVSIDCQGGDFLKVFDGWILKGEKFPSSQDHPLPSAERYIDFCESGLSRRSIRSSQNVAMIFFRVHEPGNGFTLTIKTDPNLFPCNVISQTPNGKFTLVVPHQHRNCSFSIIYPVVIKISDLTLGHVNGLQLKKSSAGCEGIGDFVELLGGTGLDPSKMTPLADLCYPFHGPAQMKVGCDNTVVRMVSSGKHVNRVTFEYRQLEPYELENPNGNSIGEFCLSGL

Glyceraldehyde-3-phosphate dehydrogenase, sequence (P04406 whole entry): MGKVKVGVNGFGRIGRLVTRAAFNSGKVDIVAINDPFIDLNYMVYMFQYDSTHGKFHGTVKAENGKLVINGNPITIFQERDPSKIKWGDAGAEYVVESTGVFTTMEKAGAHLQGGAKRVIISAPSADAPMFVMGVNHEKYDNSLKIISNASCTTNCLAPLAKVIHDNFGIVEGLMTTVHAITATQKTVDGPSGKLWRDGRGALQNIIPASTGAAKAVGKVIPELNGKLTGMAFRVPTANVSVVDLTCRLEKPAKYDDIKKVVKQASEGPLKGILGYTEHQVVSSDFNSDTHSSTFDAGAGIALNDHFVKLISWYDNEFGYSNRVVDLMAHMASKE
Paired box protein Pax-8, sequence (Q06710 whole entry): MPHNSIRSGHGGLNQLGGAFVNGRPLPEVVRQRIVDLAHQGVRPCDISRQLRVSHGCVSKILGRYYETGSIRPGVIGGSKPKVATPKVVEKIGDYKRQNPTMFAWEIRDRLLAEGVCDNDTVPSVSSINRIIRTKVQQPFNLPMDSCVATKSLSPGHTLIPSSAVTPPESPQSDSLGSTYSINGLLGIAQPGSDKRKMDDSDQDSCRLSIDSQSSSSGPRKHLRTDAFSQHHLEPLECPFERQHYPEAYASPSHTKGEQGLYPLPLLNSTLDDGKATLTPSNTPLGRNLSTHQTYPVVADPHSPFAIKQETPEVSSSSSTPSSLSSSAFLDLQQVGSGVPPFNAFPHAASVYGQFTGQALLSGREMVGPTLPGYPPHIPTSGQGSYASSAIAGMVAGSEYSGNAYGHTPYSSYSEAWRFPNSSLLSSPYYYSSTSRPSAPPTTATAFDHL
Luciferin 4-monooxygenase, sequence (P08659 whole entry): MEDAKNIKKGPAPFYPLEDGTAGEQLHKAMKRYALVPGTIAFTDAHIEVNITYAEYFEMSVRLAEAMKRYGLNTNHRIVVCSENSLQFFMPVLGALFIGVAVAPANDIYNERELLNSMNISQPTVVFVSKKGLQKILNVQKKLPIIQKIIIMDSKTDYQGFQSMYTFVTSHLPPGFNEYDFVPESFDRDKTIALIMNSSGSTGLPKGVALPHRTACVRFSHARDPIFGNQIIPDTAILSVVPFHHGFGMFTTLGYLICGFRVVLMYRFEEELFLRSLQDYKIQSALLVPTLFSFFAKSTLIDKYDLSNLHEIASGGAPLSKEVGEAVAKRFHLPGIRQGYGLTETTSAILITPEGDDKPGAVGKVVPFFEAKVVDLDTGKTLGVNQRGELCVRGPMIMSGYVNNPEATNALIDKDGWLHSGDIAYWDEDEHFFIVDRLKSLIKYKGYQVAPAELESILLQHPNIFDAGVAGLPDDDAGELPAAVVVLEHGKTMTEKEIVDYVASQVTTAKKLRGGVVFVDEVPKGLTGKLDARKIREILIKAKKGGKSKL
Cytochrome P450 2C19, sequence (P33261 whole entry): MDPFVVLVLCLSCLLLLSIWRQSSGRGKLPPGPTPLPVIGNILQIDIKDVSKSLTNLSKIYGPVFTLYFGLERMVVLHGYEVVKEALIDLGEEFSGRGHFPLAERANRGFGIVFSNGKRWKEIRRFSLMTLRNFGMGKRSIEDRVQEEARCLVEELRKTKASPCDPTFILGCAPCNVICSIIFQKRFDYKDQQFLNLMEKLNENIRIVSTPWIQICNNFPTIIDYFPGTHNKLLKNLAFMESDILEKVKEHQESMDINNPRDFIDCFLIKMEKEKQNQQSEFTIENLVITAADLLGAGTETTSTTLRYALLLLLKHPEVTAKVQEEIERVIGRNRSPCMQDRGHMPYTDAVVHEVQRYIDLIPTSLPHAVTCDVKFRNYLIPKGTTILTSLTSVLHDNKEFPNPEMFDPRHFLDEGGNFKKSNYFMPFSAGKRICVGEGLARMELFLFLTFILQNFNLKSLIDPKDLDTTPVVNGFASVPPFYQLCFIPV
Cytochrome P450 2C9, sequence (P11712 whole entry): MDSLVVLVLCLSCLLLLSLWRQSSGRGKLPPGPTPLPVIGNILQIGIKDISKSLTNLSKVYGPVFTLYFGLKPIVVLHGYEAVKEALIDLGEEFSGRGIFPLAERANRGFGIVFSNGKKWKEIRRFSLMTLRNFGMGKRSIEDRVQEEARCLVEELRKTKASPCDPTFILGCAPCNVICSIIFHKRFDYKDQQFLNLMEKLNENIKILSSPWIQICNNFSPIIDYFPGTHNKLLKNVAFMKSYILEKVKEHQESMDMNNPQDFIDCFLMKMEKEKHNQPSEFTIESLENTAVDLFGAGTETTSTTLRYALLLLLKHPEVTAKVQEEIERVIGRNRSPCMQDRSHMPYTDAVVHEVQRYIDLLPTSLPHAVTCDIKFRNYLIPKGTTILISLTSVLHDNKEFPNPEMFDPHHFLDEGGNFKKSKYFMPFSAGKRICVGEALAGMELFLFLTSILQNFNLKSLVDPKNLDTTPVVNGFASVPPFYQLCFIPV

## O=C1C(Cl)=C(N2CCN(c3ccccc3)CC2)C(=O)N1c1cccc(C(F)(F)F)c1
[1]
  IC50: > 50 µM (inconclusive)

## CC(C)(C)[C@H]1C=C(C(=O)NCc2ccccc2)O[C@@H](OCc2ccc(CO)cc2)C1
[2]
  EC50: 9.44 µM (active)

## COc1ccc(S(=O)(=O)N(C)C[C@H]2Oc3ccc(NC(=O)Nc4ccc(C(F)(F)F)cc4)cc3CC(=O)N([C@H](C)CO)C[C@@H]2C)cc1
[3]
  AC50: 11.9 µM (active)

## O=C(NCCCN1CCN(c2cccc(Cl)c2)CC1)C1CCC(=O)N1Cc1ccccc1Cl (stereo not given)
[4]
  AC50: 10 µM (inconclusive)
[5]
  EC50: 2.99 µM (active)
[6]
  EC50: > 112 µM (not active)
[7]
  EC50: > 112 µM (not active)
[8]
  AC50: 0.00631 µM (inconclusive)
[9]
  AC50: 15.8 µM (inconclusive)

## CC1(C)CC(=O)c2cc(C(=O)NCc3ccco3)c(=O)n(-c3ccc(Cl)cc3)c2C1
[2]
  EC50: 6.68 µM (active)

## C[C@@H]1CCCCO[C@@H](CN(C)C(=O)Nc2ccccc2)[C@H](C)CN([C@H](C)CO)C(=O)c2cc(NC(=O)Nc3ccc(C(F)(F)F)cc3)ccc2O1
[3]
  AC50: 3.07 µM (active)

## CCOc1ccc(CN2CCNC(=O)C2CC(=O)NCCc2ccccn2)cc1 (stereo not given)
[2]
  EC50: 6.68 µM (active)

## Cc1cc(C)c(C)c(OCCCN(C)C)c1
[2]
  EC50: 0.168 µM (active)

## NS(=O)(=O)c1ccc(/N=C/C2=C(O)c3ccccc3C2=O)cc1
[1]
  IC50: > 100 µM (not active)

## COc1ccc(NC(=O)Nc2ccc3c(c2)CC(=O)N([C@@H](C)CO)C[C@@H](C)[C@@H](CN(C)Cc2ccc(Oc4ccccc4)cc2)O3)cc1
[3]
  AC50: 25.3 µM (active)

## COc1ccc(F)cc1S(=O)(=O)Nc1cccnc1
[1]
  IC50: > 100 µM (not active)

## c1ccc(Cn2nnnc2C(c2cccnc2)N2CCN(C3CCCCC3)CC2)cc1 (stereo not given)
[2]
  EC50: 1.68 µM (active)

## Oc1cc(-c2ccccc2)c2ccccc2c1
[10]
  EC50: 40.1 µM (active)
[11]
  IC50: 14.4 µM (active)

## Cc1nc(Cl)c(Cl)n1CCOc1ccccc1
[5]
  EC50: 5.31 µM (active)
[12]
  CC50: 20.9 µM (active)

## COc1ccc(N(C)C(=O)Nc2ccc3nsnc3c2)cc1
[11]
  IC50: > 50 µM (not active)

## Cc1ccc(C(CNS(=O)(=O)c2ccc([N+](=O)[O-])cc2)N2CCN(C)CC2)cc1 (stereo not given)
[5]
  EC50: 0.0093 µM (active)
[13]
  EC50: 1.65 µM (active)
[14]
  EC50: > 60 µM (not active)

## COc1ccc(SC[C@H](Cc2ccccc2)N2CCN(C)CCC2=O)cc1
[5]
  EC50: 1.33 µM (active)

## CCC(C)C1=CC(=Nc2c(C)n(C)n(-c3ccccc3)c2=O)C=C(C(C)CC)C1=O (stereo not given)
[11]
  IC50: > 50 µM (not active)

## Cc1cc(C=C2C(=O)N(C)C(=S)N(C)C2=O)c(C)n1-c1cccnc1
[11]
  IC50: > 50 µM (not active)

## Cc1ccc(S(=O)(=O)Nc2cccc(C(=O)NCC(c3ccccc3)N(C)C)c2)cc1F (stereo not given)
[5]
  EC50: 0.267 µM (active)
[2]
  EC50: 5.31 µM (active)

## CC1CCCN(C(=O)c2ccc(S(=O)(=O)N3CCC(c4nc5ccccc5s4)CC3)cc2)C1 (stereo not given)
[15]
  AC50: 5.85 µM (active)

## Cc1cc(OCCn2ccnc2)cc(C)c1Cl
[2]
  EC50: 3.76 µM (active)

## O=C(O)c1ccc(N/N=C/c2ccc(-c3cccc(Cl)c3)o2)cc1
[5]
  EC50: 4.73 µM (active)
[16]
  AC50: 8 µM (active)
[17]
  EC50: 3.86 µM (active)
[18]
  EC50: 10.7 µM (active)

## CC1CC(C)(C)N(C(=O)CN2C(=O)c3ccccc3C2=O)c2ccccc21 (stereo not given)
[19]
  EC50: 6.44 µM (active)
[5]
  EC50: 4.22 µM (active)
[2]
  EC50: 5.96 µM (active)

## CC1CCCN(CCCN2C(=O)C3C(C(=O)Nc4ccc(Cl)cc4)C4C=CC3(O4)C2C(=O)NC2CCCCC2)C1 (stereo not given)
[5]
  EC50: 0.335 µM (active)

Reference: ChEMBL document CHEMBL1201862, “PubChem BioAssay data set” (2004)
